# Source: patent US6900198B2, “Synthetic catalytic free radical scavengers useful as antioxidants for prevention and therapy of disease” (Eukarion, Inc., priority 1995, dated 2005)
# Columns and labels:
# [1] = cited from earlier work
# [2] = Peroxidase activity toward t-BHP, ABTS oxidation; type: biochemical; settings: 1 mM t-BHP versus same concentration of H2O2
# Description: Peroxidase activity was assayed by monitoring the hydrogen peroxide-dependent oxidation of 2,2′-azino-bis(3-ethylbenzthiazoline-6) sulfonic acid (ABTS) spectrophotometrically. Standard assay mixtures consisted of 50 mM sodium phosphate, pH 8.1, 0.9% sodium chloride, 0.5 mM ABTS, and H2O2 and salen manganese complex as indicated. Where indicated, 50 mM sodium phosphate buffers of pH 6.0 or pH 7.1 were substituted. Assays were conducted at 27±0.2° C. ABTS oxidation was monitored at 740 or 500 nm to eliminate interference by the salen manganese complexes, many of which absorb in the vicinity of the λmax of oxidized ABTS, and to avoid absorbance values that exceeded the linear range of the spectrophotometer. The amount of oxidized ABTS was estimated using an Δε740 of 20,300 M^−1cm^−1 or an Δε500 of 3400 M^−1cm^−1 calculated based upon the published molar extinction coefficient oat 405 nm (36,800).
# (In comparison, horseradish peroxidase utilized t-BHP with an ABTS oxidation rate that was about 5.4% of the rate with H2O2).
# [3] = test system: acidosis-induced mucosal injury; assay: In vitro model for acidosis-induced mucosal injury
# Rat brain slices = assay: Rat brain slice ischemia EPSP system; type: cell-based; settings: 50 μM; untreated slices recovered only about 40%
# Description: A widely used assay to determine the therapeutic potential of molecules in brain ischemia (stroke) consists of evaluating their ability to prevent irreversible damage induced by an anoxic episode in brain slices maintained under physiological conditions. Rat brain slices were maintained at 35° C. in an interface chamber in an artificial cerebrospinal fluid containing: 124 mM NaCl, 3 mM KCl, 1.25 mM KH2PO4, 3 mM CaCl, 1 mM MgCl2, 26 mM NaHCO3, 10 mM D-glucose, and 2 mM L-ascorbate, continuously gassed with a mixture of O2:CO2 (95:5). The atmosphere of the chamber was also continuously gased with the mixture of O2:CO2 (95:5), except during the anoxic episode when it was replaced by N2. Axons were electrically stimulated and the evoked excitatory post-synaptic potentials (EPSPs) were recorded using microelectrodes.
# The extent of permanent damage can be quantified by measuring both the amplitude (in mV) and the initial slope (in mV/msec) of the EPSP.
# After 5 minutes of baseline recording, O2 was replaced by N2 for an average of 5 minutes. O2 was then reintroduced and recording was continued for another 50 minutes. […] In contrast, recovery in untreated brain slices was only about 40% of pre-ischemia levels.
# As an additional assessment of efficacy, the percentage of viable slices following repeated ischemic episodes was evaluated. […]
# [4] = C7 inactivation in H2O2, HPLC; type: physicochemical
# Description: Where indicated, 1 mM ABTS was also present. Components were mixed and, after various incubations times, a 30 μl aliquot was injected onto the HPLC. The mixtures were chromatographed on an octadecyl-silica column using a mobile phase consisting of 60% methanol:40% 0.1 M NaCl and a flow rate of 1 ml/min. […] A third component, with a retention time of 4.8 min, was detectable under some conditions; its appearance and disappearance was monitored but it was not further analyzed. In this system, ABTS and its oxidized product had retention times of 3.4 and 3.1-min, respectively, well resolved from the peaks of interest. Absorbance spectra collected during each run allowed the identity of C7 and salicylaldehyde to be verified. All peaks were integrated based upon their absorbance at 240 nm. The results are expressed as the percentage of maximum peak area. […] For the two putative breakdown products, this is equivalent to the largest peak observed during the course of the ˜2000 sec incubation period.
# SJL female mice = assay: Experimental Autoimmune Encephalitis (EAE); type: in vivo
# Description: EAE is an animal model of multiple sclerosis.
# Mice in both groups were immunized with an encephalitogenic PLP peptide in complete Freund's adjuvant subcutaneously, followed by Petrussis Toxin (IV). Petrussis toxin was repeated on day 3 post immunization.
# Animals were scored as follows:
# Stage I: Limp tail syndrome
# Stage II: Hind leg paralysis
# Stage III: Hind leg paralysis-Dragging movement
# Stage IV: Paralytic immobility, weight loss
# [5] = 100 μM C7, 1 mM H2O2, with 1 mM ABTS
smiles,measurement,setting,value
[Cl][Mn]1[O]c2ccccc2C=NCCN=Cc2ccccc2[O]1 [Compound C7],SOD activity previously found,[1],about 769 units/mM
same,ABTS oxidation rate with t-BHP as percent of the rate with H2O2,[2],about 0.5%
same,protection in acidosis-induced mucosal injury,[3],protective
same,recovery of EPSP amplitude and slopes after ischemia/reoxygenation,Rat brain slices,recovered to pre-ischemia levels
same,half life of the C7 peak,"[4]; 100 μM C7, 1 mM H2O2, pH 8.1, absence of ABTS",~40 s
same,C7 peak that disappeared rapidly,[4]; [5],about 20%
same,C7 remaining over the entire ~2000 sec incubation,[4]; [5],80%
same,mice that developed symptomatic EAE,"SJL female mice; fifth week, three weeks after treatment was stopped, group of 10 mice",six
same,mice that developed symptomatic EAE,"SJL female mice; third week following immunization, 1 mg/mouse daily IP, control 8 of 20",one of 10
